From patent US20120004235A1, “METHODS TO TREAT CANCER” (Rutgers, The State University of New Jersey, priority 2009, published 2012)
pIC50: −log10 of the molar value.

Tests used:
[1] = tested on: RPMI-8226 Human Multiple Myeloma; assay: Human tumor cell CFU assay (Test B); type: cell-based; conditions: Homo sapiens, RPMI-8226; colony formation in agar, continuous exposure 7-9 days
Description: For human tumor cell CFU assays, the cell lines which grow as monolayers, MDA-MB-231, HCT116, HT29, NCI-H460, KB3-1 and KBV-1 were grown in RPMI medium (Invitrogen/Gibco, Grand Island, N.Y.) supplemented with 5% fetal bovine serum (Invitrogen/Gibco, Grand Island, NY). The RPMI-8226 cell line grows in suspension.
For human tumor cell CFU assays, RPMI-8226 cells were grown in 0.35% agar in DMEM-F12 medium supplemented with 10% fetal bovine serum over a base layer of 0.5% agar in DMEM-F12 medium supplemented with 10% fetal bovine serum
For experiments, human tumor cells (1 103) were plated in 6-well plates in medium supplemented with 5% or 10% fetal bovine serum. The compounds were tested in concentrations over the range from 0.01 to 100 nanomolar in half-log intervals covering […] along with untreated control wells. In later experiments some cases the concentration ranges were refined to focus on the region of interest in the response curves. Each compound concentration was tested in duplicate wells. Cultures were exposed to the compounds continuously for 7-9 days at 37° C. in a humidified atmosphere of 5% carbon dioxide balance air. Each experiment was performed three independent times. Colonies were defined as clusters containing 30 or more cells.
The values were expressed as the mean values with lower and upper 95% confidence intervals in nanomolar concentrations.

[2] = tested on: Human DLD-1 Colon Tumor Xenograft Model; assay: Test D xenograft, Compound 2 free base; type: in vivo, nu/nu mice
[3] = tested on: Human HCT-15 Colon Tumor Xenograft Model; assay: Test D xenograft, Compound 2 free base; type: in vivo, nu/nu mice; conditions: for Increase in Life Span (ILS) / Tumor Growth Delay T-C / Tumor Growth Inhibition T/C (tumor volume): qod × 3 for 2 cycles
[4] = tested on: Human H460 Non-Small Cell Lung Carcinoma Tumor Xenograft Model; assay: Test D xenograft, Compound 2 free base; type: in vivo, nu/nu mice; conditions: 1.36 mg/kg/day IV, qod × 3 for 2 cycles
Description: (§1) The anti-tumor activity of Compound 2 (free base) was evaluated against a variety of human tumor xenograft models. A summary of the studies, including tumor type, dosing and administration, growth inhibition, and major findings is presented below.

[5] = tested on: Human SK-MEL-3 Melanoma Tumor Xenograft Model; assay: Test D xenograft, Compound 2 free base; type: in vivo, nu/nu mice; conditions: qod × 3 for 2 cycles
Description: as §1

[6] = tested on: Human 786-0 Renal Cell Tumor Xenograft Model; assay: Test D xenograft, Compound 2 free base; type: in vivo, nu/nu mice; conditions: qod × 3 for 2 cycles
[7] = In vitro metabolic stability (Example 22); type: in vitro ADME; conditions: in vitro in mouse, rat, dog, and human
Description: (§2) The in vitro and in vivo activity of compound 2 and two of its metabolites (compound 5 and compound 6) were explored and compared with the activity of camptothecin Top1 inhibitors. […] In human HCT-116 colon ca, HT-29 colon ca and NCI-H460 NSCLC cells the concentration response for compound 2, compound 5 and compound 6 were the same. […] Compound 2 was administered intravenously on a QODx3 schedule for 2 cycles.

[8] = In vitro plasma binding (Example 22); type: in vitro ADME; conditions: in vitro in mouse, rat, dog, and human
Description: as §2

[9] = In vitro partitioning into red blood cells (Example 22); type: in vitro ADME; conditions: in vitro in mouse, rat, dog, and human
Description: as §2

[10] = Half-life in nude mice (Example 22); type: in vivo; conditions: for half-life: mouse, in vivo, nude mice
Description: The in vitro and in vivo activity of compound 2 and two of its metabolites (compound 5 and compound 6) were explored and compared with the activity of camptothecin Top1 inhibitors. […] In human HCT-116 colon ca, HT-29 colon ca and NCI-H460 NSCLC cells the concentration response for compound 2, compound 5 and compound 6 were the same. […]. Compound 2 was administered intravenously on a QODx3 schedule for 2 cycles.

[11] = tested on: human HCT-116 colon ca, HT-29 colon ca and NCI-H460 NSCLC cells; assay: 72 hour exposure concentration response in tumor cells (Example 22); type: cell-based; conditions: range over HCT-116, HT-29 and NCI-H460 cells and the three compounds
Description: as §2

[12] = Body weight loss across the Example 22 xenograft studies; type: in vivo, mice; conditions: all dosages IV QODx3 for 2 cycles, except the high dosages in HCT-15 and NCI-H292
Description: as §2

[13] = tested on: Human LOX-IMVI Melanoma Tumor Xenograft Model; assay: Test D xenograft, Compound 2 free base; conditions: qod × 3 for 2 cycles
[14] = tested on: Human MDA-MB-231 Breast Tumor Xenograft Model; assay: Test D xenograft, Compound 2 free base; conditions: qod × 3 for 2 cycles
[15] = tested on: Human HCT-116 Colon Tumor Xenograft Model; assay: Test D xenograft, Compound 2 and metabolites; conditions: 1.7 mg/kg/day IV, qod × 3 for 2 cycles
[16] = 1 mg/kg/day IV, qod × 3 for 2 cycles
[17] = 4 mg/kg/day IV/QODx3 for 2 cycles

CNCCn1c(=O)c2cc(OC)c(OC)cc2c2cnc3cc4c(cc3c21)OCO4 [Compound 2, 8,9-dimethoxy-2,3-methylenedioxy-5-[2-(N-methylamino)ethyl]-5H-dibenzo[c,h]1,6-naphthyridin-6-one]
pIC50 [1]: 9.70
IC90 [1]: 0.8 nM
Increase in Life Span (ILS) [2, 16]: 1.2x
Tumor Growth Delay T-C [2, 16]: 8 days
Tumor Growth Inhibition T/C (tumor volume) [2, 16]: 51.3%
ILS (T/C) [2, 17]: 1.2x
TGD (T-C) [2, 17]: 8 days
Increase in Life Span (ILS) ([3]; 1 mg/kg/day IV): 1.3x
Tumor Growth Delay T-C ([3]; 1 mg/kg/day IV): 14 days
Tumor Growth Inhibition T/C (tumor volume) ([3]; 1 mg/kg/day IV): 37.1%
Increase in Life Span (ILS) ([3]; 2 mg/kg/day IV): 1.8x
Tumor Growth Delay T-C ([3]; 2 mg/kg/day IV): 35 days
Tumor Growth Inhibition T/C (tumor volume) ([3]; 2 mg/kg/day IV): 8.6%
maximum body weight loss ([3]; high dosage, IV QODx3 for 2 cycles): 25.7%
Increase in Life Span (ILS) [4]: 1.8x
Tumor Growth Delay T-C [4]: 21 days
Tumor Growth Inhibition T/C (tumor volume) [4]: 14.1%
Increase in Life Span (ILS) ([5]; 1 mg/kg/day IV): 1.5x
Tumor Growth Delay T-C ([5]; 1 mg/kg/day IV): 15 days
Tumor Growth Inhibition T/C (tumor volume) ([5]; 1 mg/kg/day IV): 22.0%
Increase in Life Span (ILS) ([5]; 1.36 mg/kg/day IV): 2.3x
Tumor Growth Delay T-C ([5]; 1.36 mg/kg/day IV): 35 days
Tumor Growth Inhibition T/C (tumor volume) ([5]; 1.36 mg/kg/day IV): 13.4%
Increase in Life Span (ILS) ([5]; 1.7 mg/kg/day IV): 1.9x
Tumor Growth Delay T-C ([5]; 1.7 mg/kg/day IV): 26 days
Tumor Growth Inhibition T/C (tumor volume) ([5]; 1.7 mg/kg/day IV): 16.7%
Increase in Life Span (ILS) ([6]; 1 mg/kg/day IV): 1.2x
Tumor Growth Delay T-C ([6]; 1 mg/kg/day IV): 10 days
Tumor Growth Inhibition T/C (tumor volume) ([6]; 1 mg/kg/day IV): 52.5%
Increase in Life Span (ILS) ([6]; 1.36 mg/kg/day IV): 1.2x
Tumor Growth Delay T-C ([6]; 1.36 mg/kg/day IV): 10 days
Tumor Growth Inhibition T/C (tumor volume) ([6]; 1.36 mg/kg/day IV): 52.2%
Increase in Life Span (ILS) ([6]; 1.7 mg/kg/day IV): 1.4x
Tumor Growth Delay T-C ([6]; 1.7 mg/kg/day IV): 17 days
Tumor Growth Inhibition T/C (tumor volume) ([6]; 1.7 mg/kg/day IV): 25.9%
metabolic stability [7]: high metabolic stability
plasma binding [8]: 88-93%
partitioning into red blood cells [9]: concentration dependent partitioning into red blood cells
half-life ([10]; ip): 10.4 h
half-life ([10]; iv): 5.1 h
half-life ([10]; po): 3.6 h
t1/2 ([10]; tumor-bearing mice, compared with nude mice): longer
pIC50 ([11]; read-out: IC50 concentrations): 9.19 to 9.30
IC90 ([11]; read-out: IC90 concentrations): 1.8 to 2 nM
maximum body weight loss [12]: ≤ 20%
Increase in Life Span (ILS) ([13]; 1 mg/kg/day IV): 1.1x
Tumor Growth Delay T-C ([13]; 1 mg/kg/day IV): 2 days
Tumor Growth Inhibition T/C (tumor volume) ([13]; 1 mg/kg/day IV): 89.4%
Increase in Life Span (ILS) ([13]; 2 mg/kg/day IV): 2.8x
Tumor Growth Delay T-C ([13]; 2 mg/kg/day IV): 25 days
Tumor Growth Inhibition T/C (tumor volume) ([13]; 2 mg/kg/day IV): 66.1%
Tumor Growth Inhibition T/C (tumor volume) ([13]; 4 mg/kg/day IV): 39.1%
Increase in Life Span (ILS) ([14]; 1 mg/kg/day IV): 1.7x
Tumor Growth Delay T-C ([14]; 1 mg/kg/day IV): 21 days
Tumor Growth Inhibition T/C (tumor volume) ([14]; 1 mg/kg/day IV): 30.7%
Increase in Life Span (ILS) ([14]; 1.36 mg/kg/day IV): >2.3x
Tumor Growth Delay T-C ([14]; 1.36 mg/kg/day IV): >47 days
Tumor Growth Inhibition T/C (tumor volume) ([14]; 1.36 mg/kg/day IV): 8.6%
Increase in Life Span (ILS) ([14]; 1.7 mg/kg/day IV): 2.0x
Tumor Growth Delay T-C ([14]; 1.7 mg/kg/day IV): 35 days
Tumor Growth Inhibition T/C (tumor volume) ([14]; 1.7 mg/kg/day IV): 17.7%
Increase in Life Span (ILS) [15]: 1.9x
Tumor Growth Delay T-C [15]: 28 days
Tumor Growth Inhibition T/C (tumor volume) [15]: 36.4%
